# “And” between values parts separate entries of the source, which are not always exact repeats. Equal values may be shown once. Strand notation (5' to 3'): a small letter for the sugar, then the base; units joined by * are phosphorothioate-linked, units joined directly phosphodiester-linked; [ ] holds rarer units or linkages, { } end groups; capitals alone tell only the bases. e = 2'-O-(2-methoxyethyl) (MOE); k = constrained ethyl (cEt); [5mC] = 5-methylcytosine; d = 2'-deoxy (DNA); m = 2'-O-methyl
# Assays:
# Yap1 mRNA [1] = assay: Dose-dependent inhibition of human Yap1 in SNU-449 cells (Example 9, RTS36584); format: cell-based; conditions: free uptake; for % UTC (Yap1 mRNA): approximately 48 hours; for IC50: linear regression on a log/linear plot
# How it was run: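 SNU-449 cells (10,000/well) took up modified oligonucleotides by free uptake at a range of doses for about 48 h. Yap1 mRNA was quantified with primer-probe set RTS36584, normalised to RIBOGREEN total RNA and expressed as % untreated control; IC50 from linear regression on log/linear plot.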
# Yap1 mRNA [2] = assay: Inhibition of human Yap1 mRNA in SNU449 hepatocellular carcinoma xenograft tumors (Example 26); format: in vivo; conditions: SNU449 xenografts in NSG mice, 50 mg/kg twice weekly for five days, relative to PBS treated animals
# Description: A SNU449 hepatocellular carcinoma xenograft tumor model was used to evaluate activity of modified oligonucleotides targeted to human Yap1. Ten million SNU449 cells in 30% matrigel were implanted subcutaneously into the flanks of female NOD Cg-Prkdcscid ll2rgtm1Wjl/SzJ (NSG) mice (from Jackson Laboratory) at 4-6 weeks of age. When tumors reached an average volume of 100 mm^3, approximately two weeks post-implantation, groups of four mice each were administered at 50 mg/kg twice weekly with modified oligonucleotides for five days. Tumors were collected and tested for Yap1 mRNA knockdown by RT-qPCR. Yap1 mRNA levels were measured as previously described using the Human Yap1 primer-probe set RTS4814. Yap1 mRNA levels were normalized to actin-beta content, as measured by primer probe set RTS5002. Results are presented in the tables below as percent control of the amount of Yap1 mRNA relative to PBS treated animals (% control).
# Yap1 mRNA [3] = assay: Dose-dependent inhibition of human Yap1 in A-431 cells (Example 6, 5,000 cells per well, RTS4814); format: cell-based; conditions: Table 53, A-431 cells
# How it was run: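 A-431 cells (5,000/well) took up oligonucleotides by free uptake at various doses for about 48 h. Yap1 mRNA was measured by RT-PCR (RTS4814), normalised to RIBOGREEN total RNA and expressed as % untreated control; IC50 by linear regression on a log/linear plot.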
# Yap1 mRNA [4] = assay: Dose-dependent inhibition of human Yap1 in A-431 cells (Example 7, 10,000 cells per well, RTS36584); format: cell-based; conditions: free uptake
# How it was run: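 A-431 cells at 10,000 per well received modified oligonucleotides by free uptake at several doses. After about 48 hours, Yap1 mRNA was quantified with primer-probe set RTS36584, normalized to RIBOGREEN total RNA and expressed as % untreated control. IC50 came from linear regression on a log/linear plot.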
# [5] = Tolerability in Balb/c mice, plasma chemistry markers (Example 11); format: in vivo; conditions: 50 mg/kg subcutaneously twice a week for four weeks
# Description: Balb/c mice were treated with modified oligonucleotides selected from studies described above and evaluated for changes in the levels of various plasma chemistry markers.
# (§1) Groups of male Balb/c mice at 4-6 weeks of age (obtained from Taconic) were injected subcutaneously twice a week for four weeks (for a total of 8 treatments) with 50 mg/kg of modified oligonucleotides. One group of male Balb/c mice was injected with PBS. Mice were euthanized on day 26 post start of treatment (24 hours following the final administration).
# [6] = Tolerability in Balb/c mice, body and organ weights (Example 11); format: in vivo; conditions: 50 mg/kg subcutaneously twice a week for four weeks, end of study
# Description: as §1
# Body weights of Balb/c mice were measured at the end of the study, and the average body weight for each group is presented in the table below. Modified oligonucleotides that caused any changes in organ weights outside the expected range for modified oligonucleotides were excluded from further studies.
# [7] = Tolerability in CD-1 mice, plasma chemistry markers (Example 15); format: in vivo; conditions: male CD-1 mice, 50 mg/kg s.c. twice a week for four weeks (8 treatments), day 26
# Description: CD-1 mice were treated with modified oligonucleotides selected from studies described above and evaluated for changes in the levels of various plasma chemistry markers.
# (§2) Groups of four male CD-1 mice at 4-5 weeks of age (obtained from Charles River) were injected subcutaneously twice a week for four weeks (for a total of 8 treatments) with 50 mg/kg of modified oligonucleotides. One group of male CD-1 mice was injected with PBS. Mice were euthanized on day 26 post start of treatment (24 hrs following the final administration).
# [8] = Tolerability in CD-1 mice, body and organ weights (Example 15); format: in vivo; conditions: male CD-1 mice, 50 mg/kg s.c. twice a week for four weeks (8 treatments), end of study (day 26)
# Description: as §2
# Body weights of CD-1 mice were measured at the end of the study, and the average body weight for each group is presented in the table below. Modified oligonucleotides that caused any changes in organ weights outside the expected range for modified oligonucleotides were excluded from further studies.
substance,measurement,setting,value
1198673 (kG*kA*dT*dT*dT*dA*dG*dG*dA*dT*dG*d[5mC]*kA*eT*kG*eG; antisense) [compound 1198673],% UTC (Yap1 mRNA),Yap1 mRNA [1]; 31.3 nM,51 % UTC
same,% UTC (Yap1 mRNA),Yap1 mRNA [1]; 125.0 nM,26 % UTC
same,% UTC (Yap1 mRNA),Yap1 mRNA [1]; 500.0 nM,8 % UTC
same,% UTC (Yap1 mRNA),Yap1 mRNA [1]; 2000.00 nM,3 % UTC
same,IC50,Yap1 mRNA [1],< 0.03 µM
same,"Yap1 mRNA in tumors, % control",Yap1 mRNA [2],52 % control
1197269 (kT*kA*kA*dA*mG*dT*dG*dT*dA*dT*dG*dT*d[5mC]*kA*kG*kA; antisense) [compound 1197269],% UTC (Yap1 mRNA),Yap1 mRNA [1]; 31.3 nM,48 % UTC
same,% UTC (Yap1 mRNA),Yap1 mRNA [1]; 125.0 nM,21 % UTC
same,% UTC (Yap1 mRNA),Yap1 mRNA [1]; 500.0 nM,7 % UTC
same,% UTC (Yap1 mRNA),Yap1 mRNA [1]; 2000.00 nM,1 % UTC
same,IC50,Yap1 mRNA [1],< 0.03 µM
same,"Yap1 mRNA in tumors, % control",Yap1 mRNA [2],57 % control
715483 (k[5mC]*kT*k[5mC]*dT*dT*dT*dG*dG*dA*dA*dA*d[5mC]*d[5mC]*kA*kT*kT) [compound 715483],IC50,"Yap1 mRNA [3]; Yap1 mRNA, linear regression on a log/linear plot",1.1 µM
same,% UTC 148 nM,"Yap1 mRNA [3]; free uptake, 148 nM, approximately 48 hours, RTS4814",82 % UTC
same,% UTC 444 nM,"Yap1 mRNA [3]; free uptake, 444 nM, approximately 48 hours, RTS4814",58 % UTC
same,% UTC 1333 nM,"Yap1 mRNA [3]; free uptake, 1333 nM, approximately 48 hours, RTS4814",43 % UTC
same,% UTC 4000 nM,"Yap1 mRNA [3]; free uptake, 4000 nM, approximately 48 hours, RTS4814",35 % UTC
same,"Yap1 mRNA, % UTC","Yap1 mRNA [4]; 15.6 nM, A-431 cells, 10,000 cells per well, approximately 48 hours",88 % UTC and 87 % UTC and 77 % UTC
same,"Yap1 mRNA, % UTC","Yap1 mRNA [4]; 62.5 nM, A-431 cells, 10,000 cells per well, approximately 48 hours",40 % UTC and 45 % UTC and 36 % UTC
same,"Yap1 mRNA, % UTC","Yap1 mRNA [4]; 4000.00 nM, A-431 cells, 10,000 cells per well, approximately 48 hours",4 % UTC and 3 % UTC
same,"Yap1 mRNA, % UTC","Yap1 mRNA [4]; Table 56, 15.6 nM, A-431 cells 10,000 cells per well, 48 hours",78 % UTC
same,"Yap1 mRNA, % UTC","Yap1 mRNA [4]; Table 56, 62.5 nM, A-431 cells 10,000 cells per well, 48 hours",38 % UTC
same,"Yap1 mRNA, % UTC","Yap1 mRNA [4]; Table 56, 4000.00 nM, A-431 cells 10,000 cells per well, 48 hours",6 % UTC
same,IC50,"Yap1 mRNA [4]; Table 56, A-431 cells 10,000 cells per well",0.05 µM
same,"Yap1 mRNA, % UTC","Yap1 mRNA [4]; Table 57, 15.6 nM, A-431 cells 10,000 cells per well, 48 hours",79 % UTC
same,"Yap1 mRNA, % UTC","Yap1 mRNA [4]; Table 57, 62.5 nM, A-431 cells 10,000 cells per well, 48 hours",45 % UTC
same,"Yap1 mRNA, % UTC","Yap1 mRNA [4]; Table 57, 4000.00 nM, A-431 cells 10,000 cells per well, 48 hours",4 % UTC
same,IC50,"Yap1 mRNA [4]; Table 57, A-431 cells 10,000 cells per well",0.1 µM
same,"Yap1 mRNA, % UTC","Yap1 mRNA [4]; Table 58, 15.6 nM, A-431 cells 10,000 cells per well, 48 hours",84 % UTC
same,"Yap1 mRNA, % UTC","Yap1 mRNA [4]; Table 58, 62.5 nM, A-431 cells 10,000 cells per well, 48 hours",44 % UTC
same,"Yap1 mRNA, % UTC","Yap1 mRNA [4]; Table 58, 4000.00 nM, A-431 cells 10,000 cells per well, 48 hours",5 % UTC
same,IC50,"Yap1 mRNA [4]; Table 58, A-431 cells 10,000 cells per well",0.1 µM
same,"Yap1 mRNA, % UTC","Yap1 mRNA [4]; Table 59, 15.6 nM, A-431 cells 10,000 cells per well, 48 hours",83 % UTC
same,"Yap1 mRNA, % UTC","Yap1 mRNA [4]; Table 59, 62.5 nM, A-431 cells 10,000 cells per well, 48 hours",44 % UTC
same,"Yap1 mRNA, % UTC","Yap1 mRNA [4]; Table 59, 4000.00 nM, A-431 cells 10,000 cells per well, 48 hours",4 % UTC
same,IC50,"Yap1 mRNA [4]; Table 59, A-431 cells 10,000 cells per well",0.1 µM
same,"Yap1 mRNA, % UTC","Yap1 mRNA [4]; Table 60, 15.6 nM, A-431 cells 10,000 cells per well, 48 hours",79 % UTC
same,"Yap1 mRNA, % UTC","Yap1 mRNA [4]; Table 60, 62.5 nM, A-431 cells 10,000 cells per well, 48 hours",40 % UTC
same,"Yap1 mRNA, % UTC","Yap1 mRNA [4]; Table 60, 4000.00 nM, A-431 cells 10,000 cells per well, 48 hours",3 % UTC
same,IC50,"Yap1 mRNA [4]; Table 60, A-431 cells 10,000 cells per well",0.1 µM
same,"Yap1 mRNA, % UTC","Yap1 mRNA [4]; Table 61, 15.6 nM, A-431 cells 10,000 cells per well, 48 hours",80 % UTC
same,"Yap1 mRNA, % UTC","Yap1 mRNA [4]; Table 61, 62.5 nM, A-431 cells 10,000 cells per well, 48 hours",38 % UTC
same,"Yap1 mRNA, % UTC","Yap1 mRNA [4]; Table 61, 4000.00 nM, A-431 cells 10,000 cells per well, 48 hours",4 % UTC
same,IC50,"Yap1 mRNA [4]; Table 61, A-431 cells 10,000 cells per well",0.1 µM
same,ALT,[5],62 U/L
same,AST,[5],70 U/L
same,BUN,[5],16 mg/dL
same,TBIL,[5],0.17 mg/dL
same,Kidney weight,[6],0.43 g
same,Liver weight,[6],1.56 g
same,Spleen weight,[6],0.12 g
same,body weight,[6],25 g
same,ALB,[7],2.2 g/dL
same,ALT,[7],79 U/L
same,AST,[7],125 U/L
same,Kidney weight,[8],0.64 g
same,Liver weight,[8],2.26 g
same,Spleen weight,[8],0.21 g
same,body weight,[8],40 g
1198501 (kG*kA*dT*dT*dT*dA*dG*dG*dA*dT*dG*e[5mC]*kA*eT*kG*eG; antisense) [compound 1198501],% UTC (Yap1 mRNA),Yap1 mRNA [1]; 31.3 nM,65 % UTC
same,% UTC (Yap1 mRNA),Yap1 mRNA [1]; 125.0 nM,36 % UTC
same,% UTC (Yap1 mRNA),Yap1 mRNA [1]; 500.0 nM,17 % UTC
same,% UTC (Yap1 mRNA),Yap1 mRNA [1]; 2000.00 nM,11 % UTC
same,IC50,Yap1 mRNA [1],0.1 µM
same,"Yap1 mRNA in tumors, % control",Yap1 mRNA [2],54 % control
